In US20030157101A1, “Immunogenic ALK peptides” (priority 2001, published 2003):
Several values for one entry are separate records, joined by “and”; a condition that tells them apart may be missing. Equal entries are not always repeated. Entries after “also recorded” stand apart in the source; their conditions may differ.

Columns and labels:
[1] = target: HLA-A*0201/peptide complexes (Homo sapiens, UniProt P04439, D140Y/D185E/D98H/E176V/E277Q/G131W/G231S/I119V/I121R/I166T/I218V/L300P/L318F/N151K/N90K/P208A/P217A/Q86G/Q94H/R138H/R169H/T345S); assay: HLA-A*0201/peptide complex stability on T2 cells (DC50); type: binding; conditions: 100 μM peptide overnight, Brefeldin A, 37° C.
Description: To assess the HLA-A*0201/peptide complex stability, T2 cells (10^6/ml) were incubated overnight with 100 μM of each peptide in serum free RPMI 1640 supplemented with 100 ng/ml of human β2m at 37° C. Cells were then washed four times to remove free peptides, incubated for 1 hr with 10 μg/ml of Brefeldin A (Sigma-Aldrich, France) in order to block cell surface expression of newly synthesized HLA-A*0201 molecules, washed and incubated at 37° C. for 0, 2, 4, 6, or 8 hours. Subsequently, cells were stained with anti-HLA-A2.1 mAb BB7.2. For each time point, peptide induced HLA-A*0201 expression was calculated as: mean fluorescence value of peptide incubated T2 cells/mean fluorescence value T2 cells in the absence of the peptide.

[2] = test system: HLA-A*0201 monochain transgenic (HHD) mice; assay: In vivo immunogenicity of ALK-derived peptides in HHD mice (51Cr-release on peptide-pulsed RMA-S/HHD cells); conditions: for R/T HHD mice (responder versus tested mice): 100 μg peptide s.c. in IFA, responder = specific lysis at least 15% above lysis of unloaded RMA-S/HDD; for % lysis of peptide-loaded RMA-S/HHD cells: E:T ratio 60:1, maximal lysis observed for each responder mouse
healthy donor PBLs = assay: Stimulation of ALK-specific CTLs from healthy donor PBLs; type: cell-based, human; conditions: three donors tested per peptide; lysis of peptide loaded T2 cells and NPM/ALK-positive lymphoma lines
Description: Blood was collected from HLA-A*0201 normal volunteer donors. PBMC were isolated from whole blood by Ficoll/Hypaque (Pharmacia, Uppsala, Sweden) density gradient centrifugation. Dendritic cells (DCs) were generated according to the protocol of Sallusto and Lanzavecchia (Sallusto F. et al., (1994) J Exp Med. 179: 1109-1118). Adherent monocyte-enriched peripheral blood mononuclear cells (PBMCs) were cultured in RPMI 1640 medium supplemented with 10% FCS, 20 ng/ml recombinant human interleukin (IL)-4 (R&D Systems, Minneapolis, Minn.) and 800 U/ml recombinant human granulocyte-macrophage colony-stimulating factor (GM-CSF) (Sandoz, Basel, Switzerland). On day 5 of culture, 10 ng/ml recombinant human tumor necrosis factor (TNF)-α (Knoll, Ludwigshafen, Germany) was added to the medium. After 40 hrs, the surface phenotype of monocyte-derived DCs was determined by single-color flow cytometry using the following mAbs: fluorescein-conjugated anti-CD1a ([…], Torino, Italy), anti-CD86 (CALTAG, Burlingame, Calif.), anti-CD83 (CALTAG, Burlingame, Calif.), anti-CD14 (Becton Dickinson) and rhodamine-conjugated anti-CD80 (Becton Dickinson). DCs were used to prime autologous PBL as follows. DCs were pulsed with 10 μM peptide for 2 hrs at 37° C., irradiated at 30 Gy and added to autologous PBLs at a ratio variable from 3:1 to 6:1 (PBL:DC). PBLs (36×10^6 total) were cultured at 1,5×10^6 cells/2ml of Culture Medium (CM: 50% RPMI 1640/50% X-VIVO (BioWhittaker, […], Mass.)) supplemented with 10% of heat-inactivated autologous plasma and 10 ng/ml IL-7 (R&D Systems, Minneapolis, Minn.) in the presence of autologous peptide-loaded DCs. At day 10-12 of culture, lymphocytes were restimulated with irradiated (30 Gy) autologous peptide-loaded monocytes in CM supplemented with 10% of heat-inactivated autologous plasma. After 24-48 hrs 10 IU/ml IL-2 (Chiron Co., Emeryville, Calif.) and 10 ng/ml IL-7 was added to the CM. Lymphocytes were then restimulated weekly in the same way. Starting from the forth round of stimulation, the specificity of the resulting T-cell lines was evaluated weekly in a cytolytic assay. When any specific activity was detected, CD8+ T-cells were isolated from the bulk culture by CD4+ cells negative depletion using mAb-coated beads (Dynal Dynabeads, Oxoid, Oslo, Norway) and the CTL lines were maintained in culture in RPMI 1640 containing 10% human AB serum supplemented with 50 U/ml IL-2 in the presence of irradiated (70 Gy) PBMCs as feeder. To prime ALK-specific lymphocytes, peptide-pulsed autologous dendritic cells (DCs) derived from peripheral blood mononuclear cells (PBMCs) were used after their in vitro maturation was confirmed by flow cytometric analysis of DC-specific cell surface markers. After a 3-4 week cycle of restimulation T lymphocyte specificity for ALK peptides was evaluated by determining antigen-restricted lysis of peptide loaded T2 cells (FIG. 1A) and NPM/ALK-positive lymphoma cell lines (FIG. 1B).

[3] = test system: FM3 (melanoma), HCT-116 (colon carcinoma), MCF-7 (breast carcinoma); assay: 51Cr release lysis of HLA-A2.1+/ALK- tumor lines by peptide-specific CTLs; type: cell-based, human; conditions: FM3, HCT-116, MCF-7
Description: (§1) Cytolytic activity was measured in a conventional 4-hrs ^51Cr release assay. A 10-fold excess of unlabeled K562 cells was added to offset NK activity. Target cells and E:T ratio are indicated in each figure. Specific lysis was determined according to the following formula: % specific lysis=cpm (sample−spontaneous)/cpm (total−spontaneous)×100. HLA-A*0201 blocking of T-cell activity (lysis and/or citokine release) was performed by preincubating target cells with the anti-HLA-A2 mAb CR11.351.
(§2) Thus, it can be concluded that ALK peptide induced CTLs efficiently lyse lymphoma targets, in a HLA-A2 restricted fashion, by relevant antigen-specific recognition.

[4] = test system: SK-N-SH (HLA-A2.1-/ALK+) and NB-5 (HLA-A2.1+/ALK-) cell lines; assay: 51Cr release lysis of control neuroblastoma lines by peptide-specific CTLs; type: cell-based, human
Description: as §1, with “(sample-spontaneous)/cpm (total-spontaneous)×100.” for “(sample−spontaneous)/cpm (total−spontaneous)×100.”, “CR11.351. […] Because p280-89 and p376-85 peptides lie within the kinase domain, which is present in both native and translocated ALK, we used neuroblastoma cell lines as targets in cytotoxic experiments to further verify the natural processing of these two epitopes.” for “CR11.351.”

[5] = test system: neuroblastoma cell line IMR-32; assay: 51Cr release lysis of HLA-A2.1+/ALK+ neuroblastoma cells by peptide-specific CTLs; type: cell-based, human; conditions: IMR-32, treated with INF-γ before use
Description: as §1, with “(sample-spontaneous)/cpm (total-spontaneous)×100.” for “(sample−spontaneous)/cpm (total−spontaneous)×100.”, “CR11.351. […] Because p280-89 and p376-85 peptides lie within the kinase domain, which is present in both native and translocated ALK, we used neuroblastoma cell lines as targets in cytotoxic experiments to further verify the natural processing of these two epitopes.” for “CR11.351.”

anti-ALK specific CTLs = assay: IFN-γ release assay with anti-ALK CTL lines (ELISA); type: cell-based, human; conditions: for Peptide concentration giving maximal IFN-γ production: titration on T2 cells, peptide-specific CTL lines; for IFN-γ released by p280-89 CTLs: p280-89 loaded autologous LCL
[6] = test system: ALCL lymphoma cell lines SU-DHL1 and SUP-M2; assay: 51Cr release lysis of NPM/ALK-expressing ALCL cell lines by peptide-specific CTLs; type: cell-based, human; conditions: SU-DHL1 and SUP-M2, HLA-A2.1+
Description: as §1, §2

[7] = test system: ALCL lymphoma cell lines SU-DHL1 and SUP-M2; conditions: cited from earlier work
[8] = target: T1, HLA-A*0201 molecules on TAP-deficient T2 cells (human); assay: T2 cell HLA-A*0201 stabilisation, 100 uM peptide, flow cytometry with mAb BB7.2; mean of 4 experiments ± SEM
T1 construct: Peptide-receptive class I molecule on T2 cells; also called HLA-A2.1; HLA-A2
Description: T2 cells were incubated with 100 μM of peptide in serum-free RPMI 1640 supplemented with 5 μg/ml of human β₂m (Fluka, Buchs, Germany) for 18 hrs at 37° C.

[9] = target: T1, HLA-A*0201 molecules on TAP-deficient …; assay: T2 cells loaded with 100 uM peptide, Brefeldin A, flow cytometry with BB7.2 over 0-8 h
Excerpt: Subsequently, cells were stained with anti-HLA-A2.1 mAb BB7.2.

Molecule	DC50, half-life of disassociation of HLA-A*02.01/peptide complexes [1] [h]	R/T HHD mice (responder versus tested mice) [2]	Donor response to peptide stimulation (specific CD8 reactivity) (healthy donor PBLs)	% lysis of peptide-loaded RMA-S/HHD cells [2]	FI (Fluorescence Index) [8]	further results
ALPIEYGPLV (listed as Homo sapiens) [p456-65]	2 to 4	2/6	At least one out of the three donors tested were found to be responders	–	–	–
AMLDLLHVA (listed as Homo sapiens) [p282-90]	4 to 6	3/6	No specific CD8 reactivity was detected	80% and 56% and 50%	–	–
GVLLWEIFSL (listed as Homo sapiens) [p376-85]	–	3/6	At least one out of the three donors tested were found to be responders	24% and 15%	–	Lysis of HLA-A2.1+/ALK- tumor lines by peptide-specific CTLs [3]: no activity was detected; also recorded: No lysis above background level; Lysis of HLA-A2.1-/ALK+ or HLA-A2.1+/ALK- neuroblastoma lines by peptide-specific CTLs [4]: No lysis was detected; Lysis of HLA-A2.1+/ALK+ neuroblastoma cells by peptide-specific CTLs [5]: efficiently lysed; Lysis of HLA-A2.1+/ALK+ neuroblastoma cells by peptide-specific CTLs ([5]; listed as p375-86): recognize and kill; IFN-γ released by p376-85 CTLs (anti-ALK specific CTLs; donor one, p376-85 pulsed T2 cells, 5 μM peptide): 674 IU/ml; Peptide concentration giving maximal IFN-γ production (anti-ALK specific CTLs): 100 nM; Lysis of NPM/ALK-expressing ALCL cell lines by peptide-specific CTLs [6]: efficiently recognize and lyse; also recorded: killed these tumor lines
LAMLDLLHV (listed as Homo sapiens) [p281-89]	–	2/6	No specific CD8 reactivity was detected	42% and 34%	–	–
SLAMLDLLHV (listed as Homo sapiens) [p280-89]	–	3/6	At least one out of the three donors tested were found to be responders	–	–	Lysis of HLA-A2.1+/ALK- tumor lines by peptide-specific CTLs [3]: no activity was detected; also recorded: No lysis above background level; Lysis of HLA-A2.1-/ALK+ or HLA-A2.1+/ALK- neuroblastoma lines by peptide-specific CTLs [4]: No lysis was detected; CTL cytotoxicity against NPM/ALK-positive lymphoma cell lines [7]: stimulate CTL cytotoxicity; Lysis of HLA-A2.1+/ALK+ neuroblastoma cells by peptide-specific CTLs [5]: recognize and kill; also recorded: efficiently lysed; IFN-γ released by p280-89 CTLs (anti-ALK specific CTLs; donor three, 5 μM peptide): 750 IU/ml; IFN-γ released by p280-89 CTLs (anti-ALK specific CTLs; donor two, 5 μM peptide): 445 IU/ml; Peptide concentration giving maximal IFN-γ production (anti-ALK specific CTLs): 10 nM; Lysis of NPM/ALK-expressing ALCL cell lines by peptide-specific CTLs [6]: efficiently recognize and lyse; also recorded: killed these tumor lines
SLTANMKEV (listed as Homo sapiens) [p621-29]	4 to 6	2/6	No specific CD8 reactivity was detected	63% and 53%	–	–
VLLWEIFSL (listed as Homo sapiens) [p377-85]	4 to 6	3/6	At least one out of the three donors tested were found to be responders	–	–	–
GVLLWEIFSL (also called p375-86) [ALK peptide p376-85 (GVLLWEIFSL)]	–	–	–	–	2.8 ratio (sample / irrelevant-peptide control)	DC50 (half-life of dissociation of HLA-A*0201/peptide complexes) [9]: 6 hs (hours)
VLLWEIFSL [ALK peptide p377-85 (VLLWEIFSL)]	–	–	–	–	3 ratio (sample / irrelevant-peptide control)	–
AMLDLLHVA [ALK peptide p282-90 (AMLDLLHVA)]	–	–	–	–	5.4 ratio (sample / irrelevant-peptide control)	–
SLAMLDLLHV (Lies within the ALK kinase domain) [ALK peptide p280-89 (SLAMLDLLHV)]	–	–	–	–	5.6 ratio (sample / irrelevant-peptide control)	DC50 (half-life of dissociation of HLA-A*0201/peptide complexes) [9]: 4 hs (hours)
LAMLDLLHV [ALK peptide p281-89 (LAMLDLLHV)]	–	–	–	–	3.5 ratio (sample / irrelevant-peptide control)	DC50 (half-life of dissociation of HLA-A*0201/peptide complexes) [9]: 2 hs (hours)
ALPIEYGPLV (Downstream of the kinase domain) [ALK peptide p456-65 (ALPIEYGPLV)]	–	–	–	–	4.2 ratio (sample / irrelevant-peptide control)	–
